Measurements taken from the CheMixHub viscosity set.

Experiment: xn = mol fraction of the nth substance listed

Cn1cc[n+](CCCC#N)c1.O=S(=O)([O-])C(F)(F)F + CC#N
Conditions | viscosity [mPa·s]
298.15 K, 101 kPa, x1 = 0.7996 | 306.5

CNC(C)=O + CC(=O)c1ccccc1
308.15 K, 101 kPa
Conditions | viscosity [mPa·s]
x2 = 0.0686 | 3.109
x2 = 0.138 | 2.919
x2 = 0.2189 | 2.657
x2 = 0.3143 | 2.397
x2 = 0.3938 | 2.199
x2 = 0.4912 | 1.965
x2 = 0.6042 | 1.747
x2 = 0.7227 | 1.561
x2 = 0.8517 | 1.455

CNC(C)=O + CC(C)(C)O
303.15 K, 101 kPa
Conditions | viscosity [mPa·s]
x1 = 0.0809 | 4.253
x1 = 0.1017 | 4.365
x1 = 0.2071 | 4.448
x1 = 0.3102 | 4.22
x1 = 0.4103 | 4.026
x1 = 0.5002 | 3.864
x1 = 0.6021 | 3.776
x1 = 0.7095 | 3.752
x1 = 0.8039 | 3.747
x1 = 0.9007 | 3.778

CC(C)CCO + CC(C)CC(C)(C)C
298.15 K, 101 kPa
Conditions | viscosity [mPa·s]
x2 = 0.0685 | 3.063
x2 = 0.1336 | 2.496
x2 = 0.1409 | 2.428
x2 = 0.2215 | 1.908
x2 = 0.2866 | 1.576
x2 = 0.311 | 1.471
x2 = 0.352 | 1.326
x2 = 0.4007 | 1.178
x2 = 0.4038 | 1.175
x2 = 0.4505 | 1.051
x2 = 0.4937 | 0.967
x2 = 0.5321 | 0.896
x2 = 0.6132 | 0.772
x2 = 0.6488 | 0.723
x2 = 0.7255 | 0.642
x2 = 0.782 | 0.595
x2 = 0.818 | 0.564
x2 = 0.857 | 0.544
x2 = 0.9105 | 0.512
x2 = 0.9545 | 0.494

CCOCCO + CC(C)CC(C)(C)C
viscosity [mPa·s], 101.33 kPa
Conditions | x1 = 0.0991 | x1 = 0.1991 | x1 = 0.2975 | x1 = 0.4347 | x1 = 0.4972 | x1 = 0.6001 | x1 = 0.6976 | x1 = 0.7979 | x1 = 0.8986
298.15 K | 0.494 | 0.536 | 0.595 | 0.692 | 0.753 | 0.862 | 1.006 | 1.179 | 1.436
303.15 K | 0.466 | 0.5 | 0.552 | 0.648 | 0.694 | 0.797 | 0.913 | 1.086 | 1.292
308.15 K | 0.439 | 0.475 | 0.517 | 0.601 | 0.642 | 0.738 | 0.839 | 0.993 | 1.167
313.15 K | 0.415 | 0.445 | 0.483 | 0.56 | 0.597 | 0.677 | 0.767 | 0.901 | 1.066

CC(C)CCO + CC(C)CO
viscosity [mPa·s], 101 kPa
Conditions | x1 = 0.2 | x1 = 0.4 | x1 = 0.6 | x1 = 0.8
293.15 K | 4.048 | 4.099 | 4.163 | 4.241
313.15 K | 2.178 | 2.22 | 2.27 | 2.326

CC(C)CCO + CC(C)O
298.15 K, 101 kPa
Conditions | viscosity [mPa·s]
x1 = 0.0665 | 2.158
x1 = 0.095 | 2.195
x1 = 0.1475 | 2.277
x1 = 0.1504 | 2.279
x1 = 0.2352 | 2.411
x1 = 0.2364 | 2.41
x1 = 0.3228 | 2.562
x1 = 0.3304 | 2.572
x1 = 0.4092 | 2.707
x1 = 0.4193 | 2.736
x1 = 0.5069 | 2.896
x1 = 0.5352 | 2.948
x1 = 0.6126 | 3.093
x1 = 0.6388 | 3.125
x1 = 0.7326 | 3.271
x1 = 0.7853 | 3.365
x1 = 0.8525 | 3.477
x1 = 0.9466 | 3.651

CCOCCO + CC(C)O
viscosity [mPa·s], 101.33 kPa
Conditions | x1 = 0.1024 | x1 = 0.2002 | x1 = 0.301 | x1 = 0.4035 | x1 = 0.5037 | x1 = 0.6022 | x1 = 0.6984 | x1 = 0.8009 | x1 = 0.9017
298.15 K | 1.858 | 1.764 | 1.703 | 1.692 | 1.682 | 1.693 | 1.711 | 1.756 | 1.773
303.15 K | 1.614 | 1.54 | 1.495 | 1.49 | 1.491 | 1.504 | 1.518 | 1.566 | 1.575
308.15 K | 1.404 | 1.356 | 1.324 | 1.325 | 1.329 | 1.34 | 1.36 | 1.398 | 1.413
313.15 K | 1.233 | 1.19 | 1.17 | 1.176 | 1.19 | 1.203 | 1.217 | 1.259 | 1.267

CNC(C)=O + CC(C)O
303.15 K, 101 kPa
Conditions | viscosity [mPa·s]
x1 = 0.11 | 1.922
x1 = 0.2078 | 2.005
x1 = 0.3061 | 2.099
x1 = 0.3988 | 2.217
x1 = 0.4962 | 2.377
x1 = 0.5547 | 2.49
x1 = 0.6962 | 2.824
x1 = 0.8005 | 3.115
x1 = 0.8927 | 3.418

CCOCCO + CCC(C)=O
298.15 K, 101 kPa
Conditions | viscosity [mPa·s]
x2 = 0.1219 | 1.479
x2 = 0.2381 | 1.178
x2 = 0.3488 | 0.948
x2 = 0.4545 | 0.767
x2 = 0.5555 | 0.609
x2 = 0.6521 | 0.524
x2 = 0.7446 | 0.457
x2 = 0.8333 | 0.419
x2 = 0.9183 | 0.387

Cc1ccc(NC(=O)NCCCCCCCCCCCCCCC(C)C)cc1NC(=O)NCCCCCCCCCCCCCCC(C)C + CCCCC
Conditions | viscosity [mPa·s]
293.15 K, 100 kPa, x1 = 0.0001 | 2

CC(CC(C)(C)C)CP(=O)(O)CC(C)CC(C)(C)C (centres undefined) + CCCCCC
298.15 K, 101 kPa
Conditions | viscosity [mPa·s]
x1 = 0.0033 | 0.305
x1 = 0.0159 | 0.36
x1 = 0.0175 | 0.368
x2 = 0.0987 | 89.32
x2 = 0.1765 | 69.68
x2 = 0.2746 | 47.91
x2 = 0.4476 | 23.62
x2 = 0.642 | 9.432
x2 = 0.7262 | 5.982
x2 = 0.73 | 5.931
x2 = 0.796 | 3.39
x2 = 0.8384 | 2.461
x2 = 0.8555 | 2.122
x2 = 0.9097 | 1.221
x2 = 0.9111 | 1.203
x2 = 0.9623 | 0.504

CCCCCCCCCCOC(C)=O + CCCCCC
303.15 K, 101.3 kPa
Conditions | viscosity [mPa·s]
x1 = 0.2001 | 0.4713
x1 = 0.4057 | 0.7528
x1 = 0.5086 | 0.9289
x1 = 0.5995 | 1.116
x1 = 0.7551 | 1.473

CCOCCO + CCCCCC
viscosity [mPa·s], 101.33 kPa
Conditions | x1 = 0.0967 | x1 = 0.1963 | x1 = 0.2958 | x1 = 0.394 | x1 = 0.4948 | x1 = 0.5958 | x1 = 0.6979 | x1 = 0.7955 | x1 = 0.8993
298.15 K | 0.335 | 0.376 | 0.433 | 0.504 | 0.595 | 0.716 | 0.875 | 1.087 | 1.452
303.15 K | 0.318 | 0.357 | 0.406 | 0.472 | 0.554 | 0.663 | 0.803 | 0.987 | 1.315
308.15 K | 0.303 | 0.339 | 0.385 | 0.443 | 0.517 | 0.615 | 0.741 | 0.907 | 1.199
313.15 K | 0.29 | 0.322 | 0.361 | 0.415 | 0.484 | 0.573 | 0.686 | 0.829 | 1.083
